Assay results: patent US6451818B1, “Therapeutic use of 1,6-dimethyl-8β-hydroxymethyl-10α-methoxyergoline” (Aventis Pharma S.A., priority 1998, dated 2002)

Experiments:
[1] = system: motor neurons (astrocyte/motor neuron co-cultures); experiment: Neuronal survival in astrocyte/motor neuron co-cultures; assay type: cell-based, rat; settings: for % of labelled motor neurons, very large motor neurons: vehicle alone = 100 ± 2.8; for % of labelled motor neurons, all the motor neurons: vehicle alone = 100 ± 9.4
Procedure: (§1) The motor-neuron-enriched cultures are prepared using the centrifugation method which was described by R. L. SCHNAAR and A. E. SCHAFFNER, J. Neurosci., 1, 204-217 (1981) and modified by W. CAMU and C. E. HENDERSON, J. Neurosci. Methods, 44, 59-70 (1992). The motor neurons are spread, at a density of 2500 cells per plate, on 35 mm culture plates which have previously been coated with laminin/ornithine in accordance with the method of A. G. ESTEVEZ et al., J. Neurosci., 18 (3), 923-931 (1998). The cultures are then maintained in L15 medium (GIBCO BRL) containing sodium bicarbonate (22 mM), conalbumin (0.1 mg/ml), putrescine (0.1 mM), insulin (5 μg/ml), sodium selenite ([…]), glucose (20 mM), progesterone (21 nM), penicillin (100 IU/ml) and streptomycin (100 μg/ml).
(§2) The astrocytes are obtained from young, one-day-old rats using the slightly modified method of R. P. SANETO and J. DE VELLIS as described in Neurochemistry a practical approach (A. J. TURNER and H. A. St JOHN) IRL Press, Oxford-Washington D.C., pp. 27-63. The spinal cords are dissected out under sterile conditions and freed of meninges and dorsal ganglia. Five to ten spinal cords are transferred into PBS (phosphate buffered saline) and cut before being incubated at 37° C. for 25 minutes in PBS to which 0.25% trypsin has been added. The enzymatic treatment is stopped by adding 10 ml of Dulbecco's modified Eagle medium (DMEM), to which 10% fetal calf serum (FCS) has been added, and the cells are collected by centrifugation. Another step of mechanical dissociation is performed using the end of a 1 ml pipette. The cells are spread, at a density of 1.5-2×10^6 cells per 25 cm^2 of culture medium, in DMEM containing 10% FCS. After 2 days in vitro, the cultures are fed every day. When a visible monolayer of cells has been completed, the cultures are stirred at 250 rpm for 48 hours and, on the following day, the monolayers are treated with cytosine arabinoside (10^−5 M) for 48 hours. The astrocyte monolayers are then amplified to a density of five on 35 mm culture plates for initially 25 cm^2 culture flasks.
The cells are fixed in 4% paraformaldehyde and 0.1% glutaraldehyde in PBS (pH 7.4 and at 4° C. for 15 minutes) and in a cold methanolic solution. The cultures are then washed and the nonspecific sites are blocked with 10% goat serum and 2% bovine serum albumin (BSA) in PBS and treated for immunochemistry using antibodies against the p75 weak affinity neurotrophin receptor or a 200 kD neurofilament protein (Amersham) using the manufacturer's instructions and applying the avidin-biotin-DAB/hydrogen peroxide enhancement reaction.
The astrocytes are treated with 1,6-dimethyl-8β-hydroxymethyl-10α-methoxyergoline in the following manner: the product is dissolved in methanol, sterilized by filtration and used immediately after preparation. The treatment which is applied to the enriched motor neuron cultures is effected by adding aliquots of solutions of the products to be tested to the L15 medium by spreading. The astrocyte monolayers are exposed to the vehicle or to the solutions of the compound to be tested for 24 hours and at different concentrations. […]
(§3) The number of motor neurons is estimated by counting the labelled cells in an area of 0.4-1 cm^2 under a microscope which enlarges 200 times. In all cases, the values are expressed as a percentage of the number of motor neurons which are present in cultures maintained using trophic factors. […]

[2] = system: motor neurons (astrocyte-conditioned medium); experiment: Motor neuron survival in medium conditioned by treated spinal astrocyte monolayers (neurotrophic activity produced by spinal astrocytes); assay type: cell-based, rat; settings: % of motor neurons in cultures with trophic factors
Procedure: as §1
as §2, with “When a visible monolayer of cells has been completed, the cultures are stirred at 250 rpm for 48 hours and, on the following day, the monolayers are treated with cytosine arabinoside (10^−5 M) for 48 hours. The astrocyte monolayers are then amplified to a density of five on 35 mm culture plates for initially 25 cm^2 culture flasks.” left out
as §3

[3] = system: motor neurons (co-cultures of astrocyte monolayers and motor neurons); experiment: Motor neuron survival, co-cultures of astrocyte monolayers and motor neurons; assay type: cell-based, rat; settings: vehicle alone 43.9 ± 4
Procedure: as §1, §2
The spinal astrocyte cultures consist, to an extent of more than 98%, of flat, polygonal cells which are immunoreactive for the glial fibrillar acid protein (GFAP). The monolayers are exposed to the product to be tested and then incubated with the motor neuron medium in order to obtain a conditioned culture medium. […]
as §3

[4] = system: trophic factor-deprived motor neurons; experiment: Neuronal death in motor-neuron-enriched cultures in the absence of trophic factor; assay type: cell-based
Procedure: as §1
More than 70% of the cells are immunoreactive for the neurotrophin p75 receptor and the Islet ½ markers for spinal motor neurons. Approximately 70% of the motor neurons die by apoptosis 24 hours after the spreading if the culture is performed in the absence of a trophic factor. […]
as §3

CO[C@]12C[C@@H](CO)CN(C)[C@@H]1Cc1cn(C)c3cccc2c13 [1,6-Dimethyl-8β-hydroxymethyl-10α-methoxyergoline]
% of labelled motor neurons, very large motor neurons ([1]; 0.1 μM): 122.6 ± 8.2 % | % of labelled motor neurons, all the motor neurons ([1]; 0.1 μM): 123 ± 9.3 % | % of labelled motor neurons, very large motor neurons ([1]; 1 μM): 117 ± 5.6 % | % of labelled motor neurons, all the motor neurons ([1]; 1 μM): 158.9 ± 32 % | % of labelled motor neurons, all the motor neurons ([1]; 10 μM): 137.5 ± 19 % | Motor neuron survival in % ([2]; dilution of the astrocyte-conditioned medium 1:4, vehicle alone 59.9 ± 8): 90.6 ± 4.9 % | Motor neuron survival in % ([2]; dilution of the astrocyte-conditioned medium 1:10, vehicle alone 45.4 ± 4.2): 74.8 ± 6.3 % | Motor neuron survival in % ([2]; dilution of the astrocyte-conditioned medium 1:50, vehicle alone 36.9 ± 3.2): 49.6 ± 5.3 % | Motor neuron survival in % ([3]; tested product 1 nM): 42.5 ± 4% | Motor neuron survival in % ([3]; tested product 10 nM): 48.9 ± 3 % | Motor neuron survival in % ([3]; tested product 100 nM): 57.4 ± 4 % | Motor neuron survival in % ([3]; tested product 1 μM): 68.7 ± 8 % | Neuronal arborization and cell morphology [4]: remain well preserved | Increase of the survival of trophic factor-deprived motor neurons ([4]; p<0.001): 60%
